The IC50 is the concentration needed to halve the response being measured.

The values that follow come from patent publication US8785460B2, “Tricyclic compounds and use thereof” (Takeda Pharmaceutical Company Limited, priority 2008, dated 2014).

For the experiment, the target named is T1, human CRF1 receptor (Homo sapiens, UniProt P34998).
T1 construct: expressed in transfected cells; host or cells: CHO cells (membrane fraction)
T1 sequence (P34998 24-415): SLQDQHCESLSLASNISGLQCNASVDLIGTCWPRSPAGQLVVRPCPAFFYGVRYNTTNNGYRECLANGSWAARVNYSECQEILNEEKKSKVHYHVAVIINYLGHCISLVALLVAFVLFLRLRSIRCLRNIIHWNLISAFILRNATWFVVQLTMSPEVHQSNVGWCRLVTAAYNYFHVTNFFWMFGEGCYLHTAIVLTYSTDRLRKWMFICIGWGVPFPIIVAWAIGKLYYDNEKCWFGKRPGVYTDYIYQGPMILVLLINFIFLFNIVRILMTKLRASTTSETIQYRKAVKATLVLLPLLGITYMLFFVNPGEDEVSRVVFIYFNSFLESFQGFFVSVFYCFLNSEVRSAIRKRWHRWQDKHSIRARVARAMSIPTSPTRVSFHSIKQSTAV
The experiment in a line: Measurement of CRF Binding Inhibitory Rate (receptor binding experiment with 125I-CRF). As to conditions: human CRF1 receptor expressing CHO cellular membrane fraction, 50 pM 125I-CRF, room temperature 1.5 hr, 0.05 nM to 10 μM of compound; read-out: IC50 values (CRF binding inhibition). The protocol: Measurement of CRF Binding Inhibitory Rate
A receptor binding experiment was carried out using a human CRF1 receptor expressing CHO cellular membrane fraction and ovine CRF, [^125I]-tyr^0(^125I-CRF). 1000 nM of a test compound was incubated with 1 μg of human CREF receptor expressing CHO cellular membrane fraction and 50 pM of ^125I-CRF in a binding assay buffer (50 mM Tris-HCl, 5 mM EDTA, 10 mM MgCl2, 0.05% CHAPS, 0.1% BSA, 0.5 mM PMSF, 0.1 μg/mL pepstatin, 20 μg/mL leupeptin, pH 7.5). In addition, for measuring nonspecific binding (NSB), 0.1 μM unlabelled human Urocortin was incubated with 5 μg of human CRE receptor expressing CHO cellular membrane fraction and 50 pM of ^125I-CRF in a binding assay buffer. After a binding reaction was carried out at room temperature for 1.5 hr, the membrane was entrapped on a glass filter (UniFilter plate GF-C/Perkin Elmer) by suction filtration using a cell harvester (Perkin Elmer), and washed with ice-cooled 50 mM Tris-HCl (pH 7.5). After drying the glass filter, a liquid scintillation cocktail (Microscinti 0, Perkin Elmer) was added, and the radioactivity of ^125I-CRF remaining on a glass filter was measured using Topcount (Perkin Elmer).
(TB−SB)/(TB−NSB)×100 (SB: radioactivity when a compound is added, TB: maximum binding radioactivity, NSB: nonspecific binding radioactivity) were calculated to obtain binding inhibitory rates under the range of the presence from 0.05 nM to 10 μM of each compound. The IC50 values were calculated by using GraphPad Prism software.
Turning to `CCC(OC(C)=O)c1ccc(Cl)c2nc3n(c12)CCCN3c1ccc(S(C)(=O)=O)cc1Cl` (stereo not drawn) [Example 254, 1-{9-Chloro-1-[2-chloro-4-(methylsulfonyl)phenyl]-1,2,3,4-tetrahydropyrimido[1,2-a]benzimidazol-6-yl}propyl acetate], the IC50 was less than 1 µM.

On to `CC(C)C(O)c1ccc(Cl)c2nc3n(c12)CCCN3c1ccc(Cl)cc1Cl` (stereo not drawn) [Example 234, 1-[9-Chloro-1-(2,4-dichlorophenyl)-1,2,3,4-tetrahydropyrimido[1,2-a]benzimidazol-6-yl]-2-methylpropan-1-ol], for which the IC50 was less than 1 µM.

With `C=COC(CC)c1ccc(Cl)c2nc3n(c12)CCCN3c1ccc(Cl)cc1Cl` (stereo not drawn) [Example 305, 9-Chloro-1-(2,4-dichlorophenyl)-6-[1-(ethenyloxy)propyl]-1,2,3,4-tetrahydropyrimido[1,2-a]benzimidazole], the IC50 was less than 1 µM.

`CCN(CC)c1cccc2nc3n(c12)CCC(=O)NC3c1ccc(Cl)cc1Cl` (stereo not drawn) [Example 487, 1-(2,4-Dichlorophenyl)-7-(diethylamino)-1,2,4,5-tetrahydro-3H-[1,4]diazepino[1,2-a]benzimidazol-3-one]: the IC50 is less than 1 µM.

`Cc1cc(Cl)cc(Cl)c1N1CCCn2c1nc1c(Cl)ccc(C(O)CC3CC3)c12` (stereo not drawn) [Example 386, 1-[9-Chloro-1-(2,4-dichloro-6-methylphenyl)-1,2,3,4-tetrahydropyrimido[1,2-a]benzimidazol-6-yl]-2-cyclopropylethanol]: the IC50 is less than 1 µM.

For the compound `CCC(OC(C)C)c1ccc(Cl)c2nc3n(c12)CCCN3c1ccc(Cl)cc1Cl` (stereo not drawn) [Example 237, 9-Chloro-1-(2,4-dichlorophenyl)-6-[1-(1-methylethoxy)propyl]-1,2,3,4-tetrahydropyrimido[1,2-a]benzimidazole], the IC50 is less than 1 µM.

As to `CCC(CC)c1ccc(Cl)c2nc3n(c12)CCCCN3c1c(C)nn(C)c1C` [Example 24, 10-Chloro-7-(1-ethylpropyl)-1-(1,3,5-trimethyl-1H-pyrazol-4-yl)-2,3,4,5-tetrahydro-1H-[1,3]diazepino[1,2-a]benzimidazole], the IC50 was less than 1 µM.

With `CCC(CC)c1ccc(Cl)c2nc3n(c12)CCN3c1ccc(Cl)cc1C#N` [Example 18, 5-Chloro-2-[8-chloro-5-(1-ethylpropyl)-2,3-dihydro-1H-imidazo[1,2-a]benzimidazol-1-yl]benzonitrile], the IC50 was less than 1 µM.

In the case of `CCN(CC)c1ccc(Cl)c2nc3n(c12)CCOC3c1ccc(Cl)cc1Cl` (stereo not drawn) [Example 502, 9-Chloro-1-(2,4-dichlorophenyl)-N,N-diethyl-3,4-dihydro-1H-[1,4]oxazino[4,3-a]benzimidazol-6-amine], the IC50 is less than 1 µM.

In the case of `CCCC(O)c1ccc(Cl)c2nc3n(c12)CCCN3c1c(C)cc(Cl)cc1Cl` (stereo not drawn) [Example 140, 1-[9-Chloro-1-(2,4-dichloro-6-methylphenyl)-1,2,3,4-tetrahydropyrimido[1,2-a]benzimidazol-6-yl]butan-1-ol], the IC50 was less than 1 µM.

For the compound `CC(C)(C#N)c1ccc(Cl)c2nc3n(c12)CCCN3c1ccc(Cl)cc1Cl` [Example 144, 2-[9-Chloro-1-(2,4-dichlorophenyl)-1,2,3,4-tetrahydropyrimido[1,2-a]benzimidazol-6-yl]-2-methylpropanenitrile], the IC50 is less than 1 µM.

Consider `CCC(O)c1ccc(Cl)c2nc3n(c12)CCCN3c1c(C)cc(Cl)cc1Cl` (stereo not drawn) [Example 379, 1-[9-Chloro-1-(2,4-dichloro-6-methylphenyl)-1,2,3,4-tetrahydropyrimido[1,2-a]benzimidazol-6-yl]propan-1-ol], for which the IC50 is less than 1 µM.

For the compound `CC(=O)NC(c1ccc(Cl)c2nc3n(c12)CCCN3c1ccc(Cl)cc1Cl)C(F)(F)F` (stereo not drawn) [Example 476, N-{1-[9-chloro-1-(2,4-dichlorophenyl)-1,2,3,4-tetrahydropyrimido[1,2-a]benzimidazol-6-yl]-2,2,2-trifluoroethyl}acetamide], the IC50 is less than 1 µM.

As to `CCC(NC(C)=O)c1ccc(Cl)c2nc3n(c12)CCCN3c1c(C)cc(Cl)cc1Cl` (stereo not drawn) [Example 377, N-{1-[9-Chloro-1-(2,4-dichloro-6-methylphenyl)-1,2,3,4-tetrahydropyrimido[1,2-a]benzimidazol-6-yl]propyl}acetamide], the IC50 is less than 1 µM.

Consider `OC(c1ccc(Cl)c2nc3n(c12)CCCOC3c1ccc(Cl)cc1Cl)(C1CC1)C1CC1` (stereo not drawn) [Example 500, [10-Chloro-1-(2,4-dichlorophenyl)-4,5-dihydro-1H,3H-[1,4]oxazepino[4,3-a]benzimidazol-7-yl](dicyclopropyl)methanol], for which the IC50 was less than 1 µM.

For `CCC(OC(C)=O)c1ccc(Cl)c2nc3n(c12)CCCN3c1ccc(Cl)cc1Cl` (single isomer, unassigned; (-)) [Example 239, (−)-1-[9-Chloro-1-(2,4-dichlorophenyl)-1,2,3,4-tetrahydropyrimido[1,2-a]benzimidazol-6-yl]propyl acetate], the IC50 is less than 1 µM.

As to `Cc1nc(C(N)=O)ccc1N1CCCn2c1nc1c(Cl)ccc(C(OC(F)F)C(F)(F)F)c12` (stereo not drawn) [Example 293, 5-{9-Chloro-6-[1-(difluoromethoxy)-2,2,2-trifluoroethyl]-3,4-dihydropyrimido[1,2-a]benzimidazol-1(2H)-yl}-6-methylpyridine-2-carboxamide], the IC50 was less than 1 µM.

Regarding `COc1ccc(N2CCCn3c2nc2c(Cl)ccc(C(OC)C(F)(F)F)c23)c(Cl)c1` (stereo not drawn) [Example 471, 9-Chloro-1-(2-chloro-4-methoxyphenyl)-6-(2,2,2-trifluoro-1-methoxyethyl)-1,2,3,4-tetrahydropyrimido[1,2-a]benzimidazole], the half-maximal inhibitory concentration (IC50) was less than 1 µM.

In the case of `CCC(CC)c1ccc(Cl)c2nc3n(c12)CCCCN3c1ccc(Br)cc1C` [Example 43, 1-(4-Bromo-2-methylphenyl)-10-chloro-7-(1-ethylpropyl)-2,3,4,5-tetrahydro-1H-[1,3]diazepino[1,2-a]benzimidazole], the IC50 was less than 1 µM.

`CCN(CC)c1cccc2nc3n(c12)CCN=C3c1ccc(Cl)cc1Cl` [Example 507, 1-(2,4-Dichlorophenyl)-N,N-diethyl-3,4-dihydropyrazino[1,2-a]benzimidazol-6-amine]: the IC50 is less than 1 µM.

Regarding `CCOc1ccc(N2CCCn3c2nc2c(Cl)ccc(C(OC(F)F)=C(F)F)c23)c(C)n1` [Example 286, 9-Chloro-6-[1-(difluoromethoxy)-2,2-difluoroethenyl]-1-(6-ethoxy-2-methylpyridin-3-yl)-1,2,3,4-tetrahydropyrimido[1,2-a]benzimidazole], the IC50 was less than 1 µM.

Take `CC(=O)NC(c1ccc(Cl)c2nc3n(c12)CCCN3c1c(Cl)cc(Cl)cc1Cl)C(F)(F)F` (stereo not drawn) [Example 415, N-{1-[9-Chloro-1-(2,4,6-trichlorophenyl)-1,2,3,4-tetrahydropyrimido[1,2-a]benzimidazol-6-yl]-2,2,2-trifluoroethyl}acetamide]: the IC50 is less than 1 µM.

`COc1ccc(N2CCCn3c2nc2c(Cl)ccc(C(OCC(F)F)C4CC4)c23)c(Cl)c1` (stereo not drawn) [Example 472, 9-Chloro-1-(2-chloro-4-methoxyphenyl)-6-[cyclopropyl(2,2-difluoroethoxy)methyl]-1,2,3,4-tetrahydropyrimido[1,2-a]benzimidazole]: the half-inhibitory concentration (IC50) was less than 1 µM.

`CCN(CC)c1cc(F)cc2nc3n(c12)CCCOC3c1ccc(Cl)cc1Cl` (stereo not drawn) [Example 494, 1-(2,4-Dichlorophenyl)-N,N-diethyl-9-fluoro-4,5-dihydro-1H,3H-[1,4]oxazepino[4,3-a]benzimidazol-7-amine]: the IC50 is less than 1 µM.
